Reference: patent publication USRE37410E, “Controlled local delivery of chemotherapeutic agents for treating solid tumors” (priority 1999, dated 2001)
Where two headings read alike, the source gives them in different places.

What was measured:
[1] = maintenance of sufficient systemic levels; cited from earlier work
[2] = test system: U87; format: cell-based; conditions: Homo sapiens, U-87 MG; continuous 6-8 days exposure; read-out: LD90 (the source's name)
Protocol: (§1) Cell culture. Tumor sensitivity to paclitaxel was measured by the clonogenic assay described by Rosenblum, et al., Cancer 41:2305-2314 (1978) and Salcman, et al., Neurosurgery 29:526-531 (1991) with rat glioma (9L, F98), human glioma (H80, U87, U373), and human medulloblastoma (D324) cell lines. Cells were grown and propagated in minimum essential medium (MEM) supplemented with 10% fetal bovine serum, L-glutamine, penicillin, and streptomycin and incubated at 37° C. in an atmosphere containing 5% CO2. At the start of each assay, 600 tumor cells in 2 ml of medium were plated on Falcon 6-well tissue-culture plates (Becton-Dickenson, Lincoln Park, N.J.). After incubating for 24 h, the medium was removed from the places and replaced with 2 ml of medium containing paclitaxel and 0.1% dimethylsulfoxide (DMSO). The treatment solutions were prepared as described by Roytta et al., Prostate 11:95-106 (1987). The paclitaxel treatment solution was then either replaced with fresh paclitaxel-free media containing 0.1% DMSO after 1 or 24 h or was left on the places for the 6- to 8-day incubation period. […] The colonies on each plate were counted and the result was expressed as a percentage of the colonies formed on control plates not exposed to paclitaxel. […] Graphs were prepared and analyzed using Cricket Graph v. […]

[3] = test system: H80; format: cell-based; conditions: Homo sapiens; continuous 6-8 days exposure; read-out: LD90 (the source's name)
Protocol: as §1

[4] = In vitro release of paclitaxel from PCPP-SA (20:80) polymer discs; format: physicochemical
Protocol: Solid paclitaxel, obtained from Napro Biotherapeutics (Boulder, Colo.) or from the National Cancer Institute (Bethesda, Md.), was mixed with poly[bis(p-carboxyphenoxy)propane-sebacic acid] copolymer (PCPP-SA) (20:80) synthesized according to the method of Domb, A. J., and R. Langer (J. Polym. Sci. 25:3373-3386 (1987)), the teachings of which are incorporated herein by reference, to give a mixture containing 0, 20, 30, or 40% paclitaxel by weight. The paclitaxel-polymer mixture was dissolved in methylene chloride (Fluka, Switzerland) to give a 10% solution (w:v). The solvent was evaporated with a nitrogen stream to yield a dry powder. […]
The efficiency of the delivery of paclitaxel incorporated into a biodegradable polymer into the surrounding medium was assessed in vitro as follows. […]
Protocol. […] The releasing medium was replaced at specified times during the 45-day (1000 hour) incubation period, and the recovered solutions were analyzed by scintillation counting and high pressure liquid chromatography (HPLC). […] Radioactive analysis to quantify the amount of paclitaxel release was done by mixing 200 μl of the releasing buffer solution with 4 ml of a scintillation mixture composed of toluene and Lumax (Landgraat, The Netherlands) scintillation mixture in a 2:1 volume ratio. This solution was counted on a 1211 Rack β-liquid scintillation counter (LKB-Wallac OY, Finland). […]

[5] = test system: 9L; format: cell-based; conditions: Rattus norvegicus, read-out: LD90 (the source's name)
[6] = test system: 9L, F98, U373, H80, U87, D324 cell lines; test: In vitro efficacy of paclitaxel on several cell lines (clonogenic assay); format: cell-based, rat and human
[7] = test system: U373; test: cells; conditions: Homo sapiens, U373 MG, read-out: ID90

CC(=O)O[C@H]1C(=O)[C@@]2(C)[C@H]([C@H](OC(=O)c3ccccc3)[C@]3(O)C[C@H](OC(=O)[C@H](O)[C@@H](NC(=O)c4ccccc4)c4ccccc4)C(C)=C1C3(C)C)[C@]1(OC(C)=O)CO[C@@H]1C[C@@H]2O [paclitaxel]
systemic toxicity [1]: severe, in some cases "life-threatening" toxicity | IC90 [2]: 9.1 nM | IC90 [3]: 19 nM | release profile ([4]; each of the polymer loadings, phosphate buffer pH 7.4, 37° C): released biphasically from the polymer, with an initial burst phase followed by a slower constant release phase | identity of released paclitaxel by HPLC ([4]; released into buffer): corresponded with intact paclitaxel | IC90 ([5]; 1 h, 1 h exposure): 890 nM | IC90 ([5]; 24 h, 24 h exposure): 100 nM | factor of potency increase in vitro ([6]; exposure for more than 24 h): two to four | concentration at which log cell kill occurred ([6]; rat and human brain-tumor cell lines): nanomolecular concentrations | amount required for log cell kill in rat lines relative to human lines ([6]; rat lines (9L, F98) vs human lines (U87, U373, H80), 6-8 days): four to ten | IC90 ([7]; 1 h): 280 nM | IC90 ([7]; 24 h): 29 nM | IC90 [7]: 7.2 nM
